One may read the IC50 as the concentration that gives 50% inhibition.

What all share (type): cell-based, human
Assay [1] concerns SK-MEL-28. Nature of the assay: NCI60 anticancer drug screen. Particulars: SK-MEL-28 (Melanoma), 10 μM, 48 h; lethality rather than inhibition.
The subject of assay [2] is OVCAR-3. Nature of the assay: MTS assay (cytotoxicity). The conditions noted are these: OVCAR-3 (ovarian), 72 h exposure in the dark, mean of three experiments. An excerpt: (§1) Reagents were obtained from the indicated suppliers: HBSS without phenol red and trypsin-EDTA (0.25%), Invitrogen/Gibco; PBS, Mediatech; 4′,6-diamidino-2-phenylindole dihydrochloride (DAPI) and DMSO, Sigma-Aldrich; paraformaldehyde, Electron Microscopy Sciences; WGA, Alexa Fluor 488 conjugate, Invitrogen/Molecular Probes; and ProLong Gold Antifade Mountant with DAPI, Life Technologies. Human Cancer Cell Lines. Four cell lines from the NCI60 cell panel (Shoemaker RH (2006) The NCI60 human tumour cell line anticancer drug screen. Nat Rev Cancer 6(10):813-823) representing four distinct tumor types were used in this study: DU-145, prostate; MDA-MB-231, breast; SK-MEL-28, melanoma; and OVCAR-3, ovarian. Cells were grown in RPMI 1640 cell culture medium (Mediatech) containing 2 mM L-glutamine, supplemented with 10% FBS (Omega Scientific), and maintained at 37° C. under 5% CO2 in a humidified incubator.
(§2) At the time of drug treatment, stock solutions of 1-4 were diluted to 10-fold the desired final test concentrations with RPMI medium 1640. Aliquots of […] of these diluted solutions were added to the appropriate microtiter wells containing 90 μL of medium, resulting in the required final drug concentrations (eight concentrations per compound, ranging from 0.3 to 600 μM). The final concentration of DMSO in test culture was <1%. […] Following 72 h of exposure at 37° C., cell viability was determined using the MTS assay (CellTiter 96 Aqueous One Cell Proliferation Assay; Promega) according to the manufacturer's instructions. Absorbances were measured using a microplate reader (Synergy 4; Biotek Instruments) at 490 nm. Experiments were performed in triplicate and each dose-response curve represents the mean of three or more independent experiments. Spectrophotometric data were analyzed by sigmoid dose-response, nonlinear regression analysis; the IC50, Emax values, and associated SE were calculated using GraphPad Prism 6 (GraphPad Software).
(§3) The effects of bis-sulfonate, carboxylate, and aminocaproate ring substituents on gallium corrole cytotoxicities were examined using four human cancer cell lines, representing tumors of different origin selected based on previously described sensitivities.
A general note: Tetrazolium assays rely on reduction of a dye to a coloured formazan, in cell work by metabolically active cells.

The subject of assay [3] is DU-145. Nature of the assay: MTS assay (cytotoxicity). The conditions noted are these: DU-145 (prostate), 72 h exposure in the dark, MTS assay, mean of three experiments.
Text: as §1, §2, §3

Assay [4] concerns SK-MEL-28. Nature of the assay: MTS assay (cytotoxicity). The conditions noted are these: SK-MEL-28 (melanoma), 72 h exposure in the dark, mean of three experiments.
Text: as §1, §2, §3

Assay [5] deals with MDA-MB-231. Nature of the assay: MTS assay (cytotoxicity). Particulars: MDA-MB-231 (breast), 72 h exposure in the dark, mean of three experiments.
Text: as §1, §2, §3

Assay [6] has as its system DU-145, SK-MEL-28, MDA-MB-231, OVCAR-3. Nature of the assay: MTS assay, all four cell lines taken together. The conditions noted are these: Table 1 comparison, 72 h.
Text: as §1, with “Cells were grown in RPMI 1640 cell culture medium (Mediatech) containing 2 mM L-glutamine, supplemented with 10% FBS (Omega Scientific), and maintained at 37° C. under 5% CO2 in a humidified incubator.” left out
At the time of drug treatment, stock solutions of 1-4 were diluted to 10-fold the desired final test concentrations with RPMI medium 1640. […] Following 72 h of exposure at 37° C., cell viability was determined using the MTS assay (CellTiter 96 Aqueous One Cell Proliferation Assay; Promega) according to the manufacturer's instructions. Absorbances were measured using a microplate reader (Synergy 4; Biotek Instruments) at 490 nm. […] Spectrophotometric data were analyzed by sigmoid dose-response, nonlinear regression analysis; the IC50, Emax values, and associated SE were calculated using GraphPad Prism 6 (GraphPad Software). […]

The subject of assay [7] is LOX IMVI. Nature of the assay: NCI60 anticancer drug screen. The conditions noted are these: LOX IMVI (Melanoma), 10 μM, 48 h; lethality rather than inhibition.
For assay [8], the system named is DU-145, SK-MEL-28, MDA-MB-231, OVCAR-3. Nature of the assay: Uptake of gallium corroles (ImageXpress confocal), cell lines taken together. Particulars: 30 μM, 37° C., dark. The method, then: The intracellular uptake of gallium corroles was quantified using the ImageXpressultra laser point-scanning confocal microscope (Molecular Devices). The fluorescence image acquisition settings were as previously reported (Lim P, et al. (2012), Chem Res Toxicol 25(2):400-409.). Cells (DU-145, SK-MEL-28, MDA-MB-231, and OVCAR-3) were seeded in 96-well dishes (8×10^3 cells per well in 0.1 mL) and allowed to attach overnight. Complex 1, 2, 3, or 4 was added directly to cell media at 30 μM final concentration or media only control, and incubated for 0.25, 1, 3, or 24 h at 37° C. in the dark under a 5% CO2 atmosphere. Cells were fixed and labeled in situ with WGA-Alexa Fluor 488 conjugate and DAPI to allow for the identification of cell boundary and nucleus, respectively. The quantification of blue (DAPI) fluorescence signals in each sample yielded the total number of cells in that population. Corresponding determination of red (corrole) fluorescence within each cell, corrected for background fluorescence from untreated cells, provided the number of cells containing corroles. For each corrole concentration at various time points, fluorescence data were obtained for 1,000-22,000 individual cells. Data acquisitions and analyses were performed as described (Lim P, et al. (2012), Chem Res Toxicol 25(2):400-409). The percentage of corrole-positive cells and the median fluorescence intensity (median RFU) for each treatment were plotted in a three-axis graph using Microsoft Office Excel 2007 (Microsoft Corporation).
To quantify the kinetics of intracellular uptake and accumulation of each derivative, ImageXpressultra, a laser point-scanning confocal microscope, was used for analyses. […] Cells were incubated at 37° C. in the dark for 0.25, 1, 3, or 24 h. […] Within 15 min, Complex 4 fluorescence was observable in ˜80% of ovarian cancer cells, 97% of breast cancer cells, and >99% of prostate cancer and melanoma cells, whereas up to 3 and 24 h were required to label >80% of cells from all four cancer lines with Complexes 3 and 2, respectively. […]

Marks after values point to notes of the source that are not given here.

For `O=C(O)CCCCCNc1c(F)c(F)c(C2=C3C=CC4=[N+]3[Ga-]35[n]6c2ccc6C(c2c(F)c(F)c(F)c(F)c2F)=c2ccc([n]23)=C(c2c(F)c(F)c(F)c(F)c2F)c2ccc4[n]25)c(F)c1F` (centres unmarked) [Complex 3], the “% lethality” value in assay [1] is reported as 12.1** %; in assay [7], 9.7** %. The IC50 stood at 12.7 µM in assay [2], 17.6 µM in assay [3], 14.4 µM in assay [4] and 13.7 µM in assay [5]. The “IC50 lower than Complex 2” value in assay [6] amounted to 10 fold. Also, in assay [8], the “time required to label >80% of cells from all four cancer lines” value is listed as “up to 3 h”.

Values taken from US10035806B2, “Derivatized corroles and metallocorroles and their use as imaging and therapeutic agents” (CALIFORNIA INSTITUTE OF TECHNOLOGY, priority 2015, dated 2018).
